We go through five compounds from patent publication EP2085394B1, “Metronidazole derivatives as antiparasitic agents” (University of Jordan, priority 2008, dated 2009).

As a reminder, the IC50 is the midpoint of a concentration-inhibition curve. Higher therefore signals lower potency.

Holding throughout (format): cell-based
The subject of data set [1] is Leishmania donovani promastigotes. Description: Antileishmanial activity, 96-well plates. The conditions noted are these: for IC50: Leishmania donovani; for IC50 / IC100 Leishmania donovani: promastigotes, 72 h, 24°C; for lethal activity: Leishmania donovani promastigotes, result in words. Here is the method: (§1) Entamoeba histolytica HK-9 strain (ATCC number 30015) was cultured in LYI-S-2 medium supplemented with antibiotics. Giardia intestinalis WB strain (ATCC number 30957) was grown in a modified YI-S medium with antibiotics. Both parasites were cultivated in 15-mL screw-capped borosilicate glass tubes containing 13 mL medium. The tubes were incubated on a 15° horizontal slant at (36-37) °C. Culture maintenance and subculturing was performed as described by Clark and Diamond. Entamoeba and Giardia were harvested from confluent cultures by chilling of the tubes on ice for 5-10 min to detach cells, followed by centrifugation at 800 x g for 5 min. Leishmania donovani and L. tropica promastigotes were cultured in Schneider's medium containing 20 % foetal calf serum and antibiotics at 24°C. Stationary phase promastigotes were harvested by centrifugation at 1000 x g for 10 min.
(§2) The antileishmanial activity of metronidazole-derivatives was tested in 96-well plates. Each of the meronidazole-derivatives and the reference drugs were dissolved in 10 µL of dimethyl sulfoxide (DMSO) and were completed with […] growth medium. The solutions were filter sterilized using 0.22 µm syringe filters. Then, 170 µL-two fold serial dilutions of each of the compounds and metronidazole starting at a concentration of 2000 µg/mL in culture medium were prepared in flat bottomed 96-well microtiter plates of 400-µL-well-capacity. A suspension containing 10^5 of Leishmania promastigotes per milliliter culture medium was prepared and 170-µL portions of the suspension were added to the appropriate wells. Plates were covered with the microtiter plate lids and incubated at 24°C. The number of parasites in each well was determined after 72 h by counting in a hemacytometer at the 10X objective lens. Leishmania viability was determined by observing promastigote motility. Each compound was assayed in duplicate in each of three independent experiments. In each assay two sets of controls were performed, one without any test compound and another with amphotericin B as a standard antileishmanial drug.
(§3) The minimal inhibitory concentration (MIC) defined as the minimum concentration of a compound at which no parasitic growth was observed. The 50% inhibitory concentration (IC50) was the concentration of compounds which cut the number of parasites to half that in the negative control (growth medium + DMSO + parasites).

In data set [2] the test system is Leishmania tropica promastigotes. Description: Antileishmanial activity, 96-well plates. To be noted: for IC50: Leishmania tropica; for IC50 / IC100 Leishmania tropica: promastigotes, 72 h, 24°C; for lethal activity: Leishmania tropica promastigotes, result in words. The procedure:
as §1, §2, §3

The subject of data set [3] is Entamoeba histolytica HK-9 strain. Description: Antiamoebic activity, tube method. The conditions noted are these: for IC100 Entamoeba histolytica / IC50: 72 hours, (36-37) °C, parasite count; for lethal activity / IC50 / IC50 times less than that of metronidazole: Entamoeba histolytica; for lethal activity: result in words; for IC50 times less than that of metronidazole: relative to the standard drug metronidazole. The procedure:
as §1
(§4) The antiamoebic and antigiardial activities of metronidazole-derivatives were tested using the tube method according to published procedures with some modifications. Eight milligrams of a test compound or metronidazole were dissolved in 10 µL of dimethyl sulfoxide (DMSO) and completed with 10 mL growth medium. The solutions were filter sterilized using 0.22 µm syringe filters and the appropriate volumes of the solutions were taken to prepare the concentrations of each compound in 15-mL screw-capped borosilicate glass tubes. For each compound, concentrations of 60, 30, 15, 7.5, 3.5, 1.7, 0.8, 0.4, 0.2, 0.1, 0.05, 0.02, 0.01, 0.005 µg/mL medium were prepared in a final volume of 15 mL to exclude air from the tube. For more accurate determination of the biologically active concentration of the compound, other concentrations around the above mentioned ones were also tested. Each tube was inoculated with 20,000 cells of the parasite under testing (Entamoeba or Giardia). Each compound was assayed in duplicate in each of three independent experiments. In each assay, two sets of controls were performed, one without any test compound and another with metronidazole. The caps of Entamoeba and Giardia tubes were tightly screwed and wrapped with parafilm. The tubes were incubated on a 15° horizontal slant at (36-37) °C for 72 hours.
(§5) The number of parasites in the tubes was determined as described in the literature by counting in a hemacytometer at the 10X objective. For counting of Entamoeba and Giradia, the tubes were placed on ice to permit detachment of the parasite and centrifuged at 1000 x g for 10 min. The supernatant was discarded and 1 mL fresh medium was added to each tube. Then, 25 µL of the parasite suspension in each tube was mixed with 100 µL of 0.4 % trypan blue in phosphate buffered saline (PBS) to distinguish viable from dead parasites.
as §3

The test system of data set [4] is Giardia intestinalis WB strain. The experiment in a line: Antigiardial activity, tube method. To be noted: for IC100 Giardia intestinalis / IC50: 72 hours, (36-37) °C, parasite count; for IC50: Giardia duodenalis; for lethal activity / IC50 times less than that of metronidazole: Giardia intestinalis; for lethal activity: result in words; for IC50 times less than that of metronidazole: relative to the standard drug metronidazole. The procedure: as §1, §4, §5, §3

Data set [5] has as its system Hep-2 cells. Description: Cytotoxicity assay, trypan blue exclusion. To be noted: compared with the standard drug. Here is the method:
(§6) The cytotoxicity of the metronidazole-derivatives and the reference drugs was investigated on Hep-2 and Vero cells using the standard cytotoxicity assay and the trypan blue exclusion method, as described in the literature, with modifications. A cell suspension (10^5 cells/mL RPMI medium containing 10% inactivated foetal calf serum) was prepared from confluent cultures and 100 µL portions of the suspension were added to the wells of 96-well plates. The cells were incubated for 24 h at 37 °C and 5 % CO2 and the medium in each well was then replaced with fresh 150 µL medium. Solutions of the test compounds or reference drugs were prepared and sterilized as described above (Antiprotozolal activity). Then, 150 µL-two fold serial dilutions of each of the compounds and the reference drugs starting at a concentration of 2000 µg/mL in culture medium were prepared in the plates. After 48 hour incubation at 37 °C and 5 % CO2, the number of cells in each well was determined as follows: The medium in each well was gently replaced with 100 µL of 0.25% (w/v) trypsin-0.53 mM EDTA solution and the plates were incubated for 5 minute at 37 °C to detach the cells followed by the addition of 200 µL of trypan blue solution were added to each well and the plates were, then, placed on ice. The cells were counted in a hemacytometer at the 10X objective. Each compound or reference drug was assayed in duplicate in each of three independent experiments. In each assay the negative controls (without any test compound or reference drug) were included in duplicates. IC0 was the concentration of compound at which the number of cells in the well was more than or equal to that of the negative control (IC0 = no inhibition of cell growth). Table 1. Antiamoebic and antigiardial activities of compounds IA, IIA, and IIIA

Data set [6] deals with Vero cells. Description: Cytotoxicity assay, trypan blue exclusion. The conditions noted are these: compared with the standard drug. Here is the method: as §6

≈ marks a conversion by molar mass, not a printed value.

With `C[C@@H]1[C@H](O)[C@@H](C)/C=C/C=C/C=C/C=C/C=C/C=C/C=C/[C@H](O[C@@H]2O[C@H](C)[C@@H](O)[C@H](N)[C@@H]2O)C[C@@H]2O[C@](O)(C[C@@H](O)C[C@@H](O)[C@H](O)CC[C@@H](O)C[C@@H](O)CC(=O)O[C@H]1C)C[C@H](O)[C@H]2C(=O)O` [Amphotericin B, reference compound], in data set [1], the IC50 stood at 0.08 µg/mL (≈ 0.0866 µM) and the “IC100 Leishmania donovani” value is listed as 2.5 µg/mL. Besides, in data set [2], half-maximal inhibition (IC50) required 0.08 µg/mL (≈ 0.0866 µM) and the “IC100 Leishmania tropica” value was found to be 2.5 µg/mL.
With `Cc1ncc([N+](=O)[O-])n1CCOc1ccc(C=O)cc1` [Compound IA, 4-[2-(2-methyl-5-nitro-1H-imidazol-1-yl)ethoxy]benzaldehyde], in data set [3], the “IC100 Entamoeba histolytica” value was 0.14 µg/mL, the lethal activity entry is listed as “potent lethal activity”, the IC50 worked out at 0.01 µg/mL (≈ 0.0363 µM) and the “IC50 times less than that of metronidazole” value (“IC50 times less than that” for short) was found to be 80 times. In addition, in data set [4], the “IC100 Giardia intestinalis” value came to 0.14 µg/mL, the IC50 came to 0.01 µg/mL (≈ 0.0363 µM), the lethal activity result is listed as “potent lethal activity” and the “IC50 times less than that” value was determined as 80 times. The cytotoxicity result in data set [5] is given as “equivalent in cytotoxicity to the standard drug”. Further, in data set [6], the cytotoxicity entry is listed as “equivalent in cytotoxicity to the standard drug”. For the same compound, in data set [1], the lethal activity entry is “lethal activity”, 300 µg/mL (≈ 1090 µM) corresponded to half-maximal inhibition (IC50) and the “IC100 Leishmania donovani” value is 2000 µg/mL. Moreover, in data set [2], the lethal activity result is given as “lethal activity”, it took 150 µg/mL (≈ 545 µM) to reach half-maximal inhibition (IC50) and the “IC100 Leishmania tropica” value worked out at 2000 µg/mL.
In the case of `Cc1ncc([N+](=O)[O-])n1CCNS(=O)(=O)c1sc(Cl)cc1Br` [IIA], in data set [3], the “IC100 Entamoeba histolytica” value is 0.3 µg/mL, the lethal activity result is reported as “potent lethal activity”, the IC50 worked out at 0.04 µg/mL (≈ 0.0931 µM) and the “IC50 times less than that” value is on record as 20 times. Further, in data set [4], the “IC100 Giardia intestinalis” value is 0.3 µg/mL, inhibition was half-maximal at 0.04 µg/mL (≈ 0.0931 µM) (IC50), the lethal activity result was “potent lethal activity” and the “IC50 times less than that” value stood at 20 times. Further, the cytotoxicity entry in data set [5] is on record as “equivalent in cytotoxicity to the standard drug”. In addition, the cytotoxicity result in data set [6] was “equivalent in cytotoxicity to the standard drug”. For the same compound, in data set [1], the lethal activity result was “lethal activity”, the IC50 stood at 300 µg/mL (≈ 698 µM) and the “IC100 Leishmania donovani” value was 2000 µg/mL. Besides, in data set [2], the lethal activity entry is “lethal activity”, half-maximal inhibition (IC50) required 150 µg/mL (≈ 349 µM) and the “IC100 Leishmania tropica” value is 2000 µg/mL.
As to `Cc1ncc([N+](=O)[O-])n1CCN1CCN(CCO)CC1` [IIIA], in data set [3], the “IC100 Entamoeba histolytica” value turned out to be 0.8 µg/mL, the lethal activity result is listed as “potent lethal activity”, the half-inhibitory concentration (IC50) was determined as 0.04 µg/mL (≈ 0.141 µM) and the “IC50 times less than that” value was determined as 20 times. In data set [4], the “IC100 Giardia intestinalis” value was found to be 0.8 µg/mL, 0.04 µg/mL (≈ 0.141 µM) corresponded to half-maximal inhibition (IC50), the lethal activity entry was “potent lethal activity” and the “IC50 times less than that” value came out at 20 times. The cytotoxicity entry in data set [5] is recorded as “equivalent in cytotoxicity to the standard drug”. Besides, the cytotoxicity result in data set [6] was “equivalent in cytotoxicity to the standard drug”. Further, in data set [1], the lethal activity entry was “lethal activity”, the IC50 came to 62.5 µg/mL (≈ 221 µM) and the “IC100 Leishmania donovani” value worked out at 250 µg/mL. In data set [2], the lethal activity entry is on record as “lethal activity”, inhibition was half-maximal at 62.5 µg/mL (≈ 221 µM) (IC50) and the “IC100 Leishmania tropica” value came to 250 µg/mL.
Turning to `Cc1ncc([N+](=O)[O-])n1CCO` [Metronidazole, 2-(2-methyl-5-nitro-1H-imidazol-1-yl) ethanol], the “IC100 Entamoeba histolytica” value in data set [3] came out at 3.2 µg/mL. Further, the IC50 in data set [3] turned out to be 0.8 µg/mL (≈ 4.67 µM); in data set [4] it was 0.8 µg/mL (≈ 4.67 µM); in data set [1], 2000 µg/mL (≈ 11700 µM); in data set [2] it was 2000 µg/mL (≈ 11700 µM). In addition, the “IC100 Giardia intestinalis” value in data set [4] amounted to 3.2 µg/mL.
